Assay results: US12052991B2, “Substituted pyridinyloxybenzenes and salts thereof and use thereof as herbicidal agents” (Bayer Aktiengesellschaft, priority 2018, dated 2024)

Key:
Type in all cases: in vivo
Bassia scoparia (KCHSC) [1] = test: Herbicidal post-emergence action (Table B11); settings: visual rating about 3 weeks after treatment, 100% = plants have died, 0% = like control plants
Procedure, shortened: (§1)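 Visual percent activity relative to untreated controls (100% = plants dead, 0% = like controls) was scored about 3 weeks after treatment. Plants had been sprayed at the one-leaf stage with formulated compound at 1280 or 320 g/ha in 600 L/ha water containing 0.5% additive.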

[2] = tested on: Abutilon theophrasti (ABUTH); test: Herbicidal pre-emergence action, test C (Table C5); settings: visual scoring after about 3 weeks, 100% = plants have died, 0% = like control plants
Procedure, shortened: (§2)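 Seeds are covered with sandy loam, and the formulated compound is applied to the soil surface before emergence at 1280 or 320 g/ha. Spray carries 0.5% additive at 600 L/ha. Damage is rated visually as percent versus untreated pots after roughly 3 weeks.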

Stellaria media (STEME) [3] = test: Herbicidal pre-emergence action, test C (Table C8); settings: visual scoring after about 3 weeks, 100% = plants have died, 0% = like control plants
Procedure, shortened: as §2

[4] = tested on: Amaranthus retroflexus (AMARE); test: Herbicidal pre-emergence action, test C (Table C6); settings: visual scoring after about 3 weeks, 100% = plants have died, 0% = like control plants
Procedure, shortened: as §2

[5] = tested on: Alopecurus myosuroides (ALOMY); test: Herbicidal post-emergence action (Table B9); settings: rated visually after about 3 weeks, 100% = plants have died, 0% = like control plants
Procedure, shortened: as §1

Poa annua (POAAN) [6] = test: Herbicidal post-emergence action (Table B3); settings: rated visually after about 3 weeks, 100% = plants have died, 0% = like control plants
Procedure, shortened: as §1

[7] = tested on: harmful plants ABUTH, AMARE, ECHCG, LOLRI, MATIN, POAAN, SETVI, STEME, ALOMY, DIGSA, KCHSC and VERPE; test: Herbicidal post-emergence action, summary of Tables B1-B12; settings: application rate of 1280 or 320 g of active ingredient per hectare; summary in words
Procedure, shortened: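 Greenhouse weeds in sandy loam treated post-emergence at the one-leaf stage, 2–3 weeks after sowing, with WP or EC formulations sprayed with 0.5% additive at 600 L/ha water, 1280 or 320 g/ha. Damage rated visually after about 3 weeks versus untreated controls (0% = like control, 100% = dead).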

Poa annua (POAAN) [8] = test: Herbicidal pre-emergence action, test C (Table C3); settings: visual scoring after about 3 weeks, 100% = plants have died, 0% = like control plants
Procedure, shortened: as §2

[9] = tested on: harmful plants ABUTH, AMARE, ECHCG, LOLRI, MATIN, POAAN, SETVI, STEME, ALOMY, DIGSA, KCHSC and VERPE; test: Herbicidal pre-emergence action (test C), summary of Tables C1-C12; settings: application rate of 1280 or 320 g of active ingredient per hectare; summary in words
Procedure, shortened: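 Pre-emergence pot test in sandy loam: WP or EC formulations were sprayed onto the covering soil with 0.5% additive at 600 L/ha water, at 1280 or 320 g/ha. Plants were kept in the greenhouse, and activity was rated visually about 3 weeks later as % versus untreated controls (100% = dead).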

Veronica persica (VERPE) [10] = test: Herbicidal post-emergence action (Table B12); settings: visual rating about 3 weeks after treatment, 100% = plants have died, 0% = like control plants
Procedure, shortened: as §1

[11] = tested on: Amaranthus retroflexus (AMARE); test: Herbicidal post-emergence action (Table B6); settings: visual rating about 3 weeks after treatment, 100% = plants have died, 0% = like control plants
Procedure, shortened: as §1

[12] = tested on: Digitaria sanguinalis (DIGSA); test: Herbicidal pre-emergence action, test C (Table C10); settings: visual scoring after about 3 weeks, 100% = plants have died, 0% = like control plants
Procedure, shortened: as §2

[13] = tested on: Abutilon theophrasti (ABUTH); test: Herbicidal post-emergence action (Table B5); settings: rated visually after about 3 weeks, 100% = plants have died, 0% = like control plants
Procedure, shortened: as §1

Bassia scoparia (KCHSC) [14] = test: Herbicidal pre-emergence action, test C (Table C11); settings: visual scoring vs untreated controls
From the text: (§3) Seeds of mono- and dicotyledonous weed plants were placed in plastic pots in sandy loam soil (doubly sown with one species each of mono- or dicotyledonous weed plants per pot) and covered with soil. The compounds of the invention, formulated in the form of wettable powders (WP) or as emulsion concentrates (EC), were then applied onto the surface of the covering soil as aqueous suspension or emulsion with addition of 0.5% additive at a water application rate of 600 liters per hectare (converted). After the treatment, the pots were placed in a greenhouse and kept under good growth conditions for the test plants. After about 3 weeks, the effect of the preparations was scored visually in comparison with untreated controls as percentages. For example, 100% activity=the plants have died, 0% activity=like control plants. Tables C1 to C12 below show the effects of selected compounds of the general formula (I) according to Table 1 on various harmful plants and an application rate corresponding to 1280 or 320 g/ha, which were obtained by the experimental procedure mentioned above.

Stellaria media (STEME) [15] = test: Herbicidal post-emergence action (Table B8); settings: visual rating about 3 weeks after treatment, 100% = plants have died, 0% = like control plants
Procedure, shortened: as §1

Veronica persica (VERPE) [16] = test: Herbicidal pre-emergence action, test C (Table C12); settings: visual scoring vs untreated controls
Procedure, shortened: as §2

[17] = tested on: Echinochloa crus-galli (ECHCG); test: Herbicidal pre-emergence action, test C (Table C1); settings: visual scoring after about 3 weeks, 100% = plants have died, 0% = like control plants
From the text: as §3

[18] = tested on: Matricaria inodora (MATIN); test: Herbicidal pre-emergence action, test C (Table C7); settings: dosage 1280 g/ha; visual scoring after about 3 weeks; 100% = plants have died, 0% = like control plants
Procedure, shortened: as §2

[19] = tested on: Digitaria sanguinalis (DIGSA); test: Herbicidal post-emergence action (Table B10); settings: visual rating about 3 weeks after treatment, 100% = plants have died, 0% = like control plants
Procedure, shortened: as §1

[20] = tested on: Echinochloa crus-galli (ECHCG); test: Herbicidal post-emergence action (Table B1); settings: rated visually after about 3 weeks, 100% = plants have died, 0% = like control plants
Procedure, shortened: as §1

[21] = tested on: Alopecurus myosuroides (ALOMY); test: Herbicidal pre-emergence action, test C (Table C9); settings: visual scoring after about 3 weeks, 100% = plants have died, 0% = like control plants
Procedure, shortened: as §2

Setaria viridis (SETVI) [22] = test: Herbicidal pre-emergence action, test C (Table C4); settings: visual scoring after about 3 weeks, 100% = plants have died, 0% = like control plants
Procedure, shortened: as §2

Lolium rigidum (LOLRI) = test: Herbicidal pre-emergence action, test C (Table C2); settings: dosage 1280 g/ha; visual scoring after about 3 weeks; 100% = plants have died, 0% = like control plants
From the text: as §3

Setaria viridis (SETVI) [23] = test: Herbicidal post-emergence action (Table B4); settings: rated visually after about 3 weeks, 100% = plants have died, 0% = like control plants
Experimental: Seeds of mono- and dicotyledonous weed plants were placed in plastic pots in sandy loam soil (doubly sown with in each case one species of mono- or dicotyledonous weed plants per pot), covered with soil and cultivated in a greenhouse under controlled growth conditions. 2 to 3 weeks after sowing, the test plants were treated at the one-leaf stage. The compounds of the invention, formulated in the form of wettable powders (WP) or as emulsion concentrates (EC), were applied onto the green parts of the plants as aqueous suspension or emulsion with addition of 0.5% additive at a water application rate of 600 liters per hectare (converted). After the test plants had been kept in the greenhouse under optimum growth conditions for about 3 weeks, the activity of the preparations was rated visually in comparison to untreated controls. For example, 100% activity=the plants have died, 0% activity=like control plants. Tables B1 to B12 below show the effects of selected compounds of the general formula (I) according to Table 1 on various harmful plants and an application rate corresponding to 1280 or 320 g/ha, which were obtained by the experimental procedure mentioned above.

Row | Compound | Post-emergence action against Bassia scoparia (KCHSC) (Bassia scoparia (KCHSC) [1]; dosage 320 g/ha) | Post-emergence action against Bassia scoparia (KCHSC) (Bassia scoparia (KCHSC) [1]; dosage 1280 g/ha) | Pre-emergence action against Abutilon theophrasti (ABUTH) ([2]; dosage 320 g/ha) | Pre-emergence action against Abutilon theophrasti (ABUTH) ([2]; dosage 1280 g/ha) | Pre-emergence action against Stellaria media (STEME) (Stellaria media (STEME) [3]; dosage 320 g/ha) | Pre-emergence action against Stellaria media (STEME) (Stellaria media (STEME) [3]; dosage 1280 g/ha) | Pre-emergence action against Amaranthus retroflexus (AMARE) ([4]; dosage 320 g/ha) | Pre-emergence action against Amaranthus retroflexus (AMARE) ([4]; dosage 1280 g/ha) | Post-emergence action against Alopecurus myosuroides (ALOMY) ([5]; 320 g/ha) | Post-emergence action against Alopecurus myosuroides (ALOMY) ([5]; 1280 g/ha) | Post-emergence action against Poa annua (POAAN) (Poa annua (POAAN) [6]; 320 g/ha) | Post-emergence action against Poa annua (POAAN) (Poa annua (POAAN) [6]; 1280 g/ha) | herbicidal activity against the harmful plants of Tables B1-B12 in post-emergence treatment [7] | herbicidal activity against the harmful plants of Tables C1-C12 in pre-emergence treatment [9] | Post-emergence action against Veronica persica (VERPE) (Veronica persica (VERPE) [10]; dosage 320 g/ha) | Post-emergence action against Veronica persica (VERPE) (Veronica persica (VERPE) [10]; dosage 1280 g/ha) | Post-emergence action against Amaranthus retroflexus (AMARE) ([11]; dosage 320 g/ha) | Post-emergence action against Amaranthus retroflexus (AMARE) ([11]; dosage 1280 g/ha) | Pre-emergence action against Digitaria sanguinalis (DIGSA) ([12]; dosage 1280 g/ha) | Post-emergence action against Abutilon theophrasti (ABUTH) ([13]; 320 g/ha) | further results
1 | FC(F)c1cc(-c2ccccc2Oc2ccccn2)on1 [Example 1-38] | 90% | 100% | 100% | 100% | 100% | 100% | 100% | 100% | 100% | 100% | 100% | 100% | very good herbicidal activity | very good herbicidal activity | 100% | 100% | 100% | 100% | 100% | 100% | Pre-emergence action against Poa annua (POAAN) (Poa annua (POAAN) [8]; dosage 320 g/ha): 100%; Pre-emergence action against Poa annua (POAAN) (Poa annua (POAAN) [8]; dosage 1280 g/ha): 100%; Post-emergence action against Abutilon theophrasti (ABUTH) ([13]; 1280 g/ha): 100%; Pre-emergence action against Bassia scoparia (KCHSC) (Bassia scoparia (KCHSC) [14]; dosage 320 g/ha): 100%; Pre-emergence action against Bassia scoparia (KCHSC) (Bassia scoparia (KCHSC) [14]; dosage 1280 g/ha): 100%; Post-emergence action against Stellaria media (STEME) (Stellaria media (STEME) [15]; dosage 320 g/ha): 100%; Post-emergence action against Stellaria media (STEME) (Stellaria media (STEME) [15]; dosage 1280 g/ha): 100%; Pre-emergence action against Veronica persica (VERPE) (Veronica persica (VERPE) [16]; dosage 1280 g/ha): 100%; Pre-emergence action against Echinochloa crus-galli (ECHCG) ([17]; dosage 1280 g/ha): 100%; Pre-emergence action against Matricaria inodora (MATIN) [18]: 100%; Post-emergence action against Digitaria sanguinalis (DIGSA) ([19]; dosage 1280 g/ha): 100%; Post-emergence action against Echinochloa crus-galli (ECHCG) ([20]; 320 g/ha): 90%; Post-emergence action against Echinochloa crus-galli (ECHCG) ([20]; 1280 g/ha): 100%; Pre-emergence action against Alopecurus myosuroides (ALOMY) ([21]; dosage 320 g/ha): 90%; Pre-emergence action against Alopecurus myosuroides (ALOMY) ([21]; dosage 1280 g/ha): 100%; Pre-emergence action against Setaria viridis (SETVI) (Setaria viridis (SETVI) [22]; dosage 1280 g/ha): 100%
2 | N#Cc1cccc(Oc2ccc(Cl)cn2)c1-c1cc(C(F)F)no1 [Example 1-55] | 100% | 100% | 100% | 100% | 100% | 100% | 100% | 100% | 100% | 100% | 100% | 100% | very good herbicidal activity | very good herbicidal activity | 100% | 100% | 100% | 100% | 100% | 100% | Pre-emergence action against Lolium rigidum (LOLRI) (Lolium rigidum (LOLRI)): 100%; Pre-emergence action against Digitaria sanguinalis (DIGSA) ([12]; dosage 320 g/ha): 100%; Post-emergence action against Abutilon theophrasti (ABUTH) ([13]; 1280 g/ha): 100%; Pre-emergence action against Bassia scoparia (KCHSC) (Bassia scoparia (KCHSC) [14]; dosage 320 g/ha): 100%; Pre-emergence action against Bassia scoparia (KCHSC) (Bassia scoparia (KCHSC) [14]; dosage 1280 g/ha): 100%; Post-emergence action against Stellaria media (STEME) (Stellaria media (STEME) [15]; dosage 320 g/ha): 100%; Post-emergence action against Stellaria media (STEME) (Stellaria media (STEME) [15]; dosage 1280 g/ha): 100%; Pre-emergence action against Veronica persica (VERPE) (Veronica persica (VERPE) [16]; dosage 320 g/ha): 100%; Pre-emergence action against Veronica persica (VERPE) (Veronica persica (VERPE) [16]; dosage 1280 g/ha): 100%; Pre-emergence action against Echinochloa crus-galli (ECHCG) ([17]; dosage 320 g/ha): 100%; Pre-emergence action against Echinochloa crus-galli (ECHCG) ([17]; dosage 1280 g/ha): 100%; Post-emergence action against Digitaria sanguinalis (DIGSA) ([19]; dosage 320 g/ha): 100%; Post-emergence action against Digitaria sanguinalis (DIGSA) ([19]; dosage 1280 g/ha): 100%; Post-emergence action against Echinochloa crus-galli (ECHCG) ([20]; 1280 g/ha): 100%; Pre-emergence action against Alopecurus myosuroides (ALOMY) ([21]; dosage 320 g/ha): 100%; Pre-emergence action against Alopecurus myosuroides (ALOMY) ([21]; dosage 1280 g/ha): 100%; Pre-emergence action against Setaria viridis (SETVI) (Setaria viridis (SETVI) [22]; dosage 320 g/ha): 100%; Pre-emergence action against Setaria viridis (SETVI) (Setaria viridis (SETVI) [22]; dosage 1280 g/ha): 100%; Post-emergence action against Setaria viridis (SETVI) (Setaria viridis (SETVI) [23]; 320 g/ha): 100%; Post-emergence action against Setaria viridis (SETVI) (Setaria viridis (SETVI) [23]; 1280 g/ha): 100%
